Assay results from patent US20090170882A1, “Methods and compositions” (priority 2004, published 2009).

What was measured:
KSP motor domain = target: T1, KSP motor domain (Homo sapiens, UniProt P52732); assay: KSP ATPase assay (IC50 for KSP activity); assay type: biochemical
T1 construct: 100 nM KSP motor domain, 50 μg/ml microtubules
T1 sequence (P52732 18-359 limits assumed): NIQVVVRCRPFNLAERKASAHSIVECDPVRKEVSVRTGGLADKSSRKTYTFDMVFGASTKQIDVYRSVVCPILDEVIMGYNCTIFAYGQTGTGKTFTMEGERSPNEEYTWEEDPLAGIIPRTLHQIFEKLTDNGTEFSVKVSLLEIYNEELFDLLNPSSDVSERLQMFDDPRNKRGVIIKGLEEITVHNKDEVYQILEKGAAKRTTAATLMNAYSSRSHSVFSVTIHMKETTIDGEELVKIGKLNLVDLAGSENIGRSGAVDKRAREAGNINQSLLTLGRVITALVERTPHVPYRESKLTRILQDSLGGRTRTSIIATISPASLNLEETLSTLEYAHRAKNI
Method: One measure of inhibition is IC50, defined as the concentration of the composition at which the activity of KSP is decreased by fifty percent relative to a control. Preferred compositions have […] of less than about 1 mM, with preferred embodiments having IC50's of less than about 100 μM, with more preferred embodiments having IC50's of less than about 10 μM, with particularly preferred embodiments having IC50's of less than about 1 μM, and especially preferred embodiments having IC50's of less than about 100 nM, and with the most preferred embodiments having IC50's of less than about 10 nM. Measurement of IC50 is done using an ATPase assay.
Measurement of a composition's IC50 for KSP activity uses an ATPase assay. The following solutions are used: Solution 1 consists of 3 mM phosphoenolpyruvate potassium salt (Sigma P-7127), 2 mM ATP (Sigma A-3377), 1 mM DTT (Sigma D-9779), 5 μM paclitaxel (Sigma T-7402), 10 ppm antifoam 289 (Sigma A-8436), 25 mM Pipes/KOH pH 6.8 (Sigma P6757), 2 mM MgC12 (VWR JT400301), and 1 mM EGTA (Sigma E3889). Solution 2 consists of 1 mM NADH (Sigma N8129), 0.2 mg/ml BSA (Sigma A7906), pyruvate kinase 7 U/ml, L-lactate dehydrogenase 10 U/ml (Sigma P0294), 100 nM KSP motor domain, 50 μg/ml microtubules, 1 mM DTT (Sigma D9779), 5 μM paclitaxel (Sigma T-7402), 10 ppm antifoam 289 (Sigma A-8436), 25 mM Pipes/KOH pH 6.8 (Sigma P6757), 2 mM MgC12 (VWR JT4003-01), and 1 mM EGTA (Sigma E3889). Serial dilutions (8-12 two-fold dilutions) of the composition are made in a 96-well microtiter plate (Corning Costar 3695) using Solution 1. Following serial dilution each well has 50 μl of Solution 1. The reaction is started by adding 50 μl of solution 2 to each well. This may be done with a multichannel pipettor either manually or with automated liquid handling devices. The microtiter plate is then transferred to a microplate absorbance reader and multiple absorbance readings at 340 nm are taken for each well in a kinetic mode. The observed rate of change, which is proportional to the ATPase rate, is then plotted as a function of the compound concentration. For a standard IC50 determination the data acquired is fit by the following four parameter equation using a nonlinear fitting program (e.g., Grafit 4): […]
where y is the observed rate and x the compound concentration. […] By this we mean that although most of the compounds that inhibited KSP activity biochemically did inhibit cell proliferation, for some, at the highest concentration tested (generally about 20 μM), cell growth was inhibited less than 50%. […] Anti-proliferative compounds that have been successfully applied in the clinic to treatment of cancer (cancer chemotherapeutics) have IC50's that vary greatly. […]

[1] = system: tumor cell lines including SKOV3 and Colo205; assay: Inhibition of cellular proliferation in tumor cell lines (MTS, 48 hours); assay type: cell-based, human; conditions: various tumor cell lines including SKOV3 and Colo205; 'typically'
Method: Cells were plated in 96-well plates at densities from 1000-2500 cells/well of a 96-well plate and allowed to adhere/grow for 24 hours. They were then treated with various concentrations of drug for 48 hours. The time at which compounds are added is considered T0. A tetrazolium-based assay using the reagent 3-(4,5-dimethylthiazol-2-yl)-5-(3-carboxymethoxyphenyl)-2-(4-sulfophenyl)-2H-tetrazolium (MTS) (U.S. Pat. No. 5,185,450) (see Promega product catalog #G3580, CellTiter 96® AQueous One Solution Cell Proliferation Assay) was used to determine the number of viable cells at T0 and the number of cells remaining after 48 hours compound exposure. The number of cells remaining after 48 hours was compared to the number of viable cells at the time of drug addition, allowing for calculation of growth inhibition.
The growth over 48 hours of cells in control wells that had been treated with vehicle only (0.25% DMSO) is considered 100% growth and the growth of cells in wells with compounds is compared to this.
An IC50 was calculated by plotting the concentration of compound in μM vs the percentage of cell growth of cell growth in treated wells. The IC50 calculated for the compounds is the estimated concentration at which growth is inhibited by 50% compared to control, i.e., the concentration at which:
All concentrations of compounds are tested in duplicate and controls are averaged over 12 wells. A very similar 96-well plate layout and IC50 calculation scheme is used by the National Cancer Institute (see Monks, et al., J. Natl. Cancer Inst. 83:757-766 (1991)).

A549 cells = conditions: data provided by National Cancer Institute, Developmental Therapeutic Program; cited from earlier work

| Structure (SMILES) | IC50 for inhibition of KSP (KSP motor domain) | IC50 for inhibition of proliferation of tumor cell lines [1] | IC50 (A549 cells) [nM] |
| --- | --- | --- | --- |
| CS(=O)(=O)Nc1ccc2[nH]c3ccc(C(F)(F)F)cc3c2c1 [6-(trifluoromethyl-9H-carbazol-3-yl)-methanesulfonamide] | not active | not active |  |
| COc1cccc2c1C(=O)c1c(O)c3c(c(O)c1C2=O)C[C@@](O)(C(=O)CO)C[C@@H]3O[C@H]1C[C@H](N)[C@H](O)[C@H](C)O1 [doxorubicin] |  |  | 63 |
| Nc1cccc2c1[nH]c1ccc(C(F)(F)F)cc12 [6-(trifluoromethyl)-9H-carbazol-1-ylamine] | not active | not active |  |
| NC(=O)Nc1ccc2[nH]c3ccc(C(F)(F)F)cc3c2c1 [(6-Trifluoromethyl-9H-carbazol-3-yl)-urea] | not active | not active |  |
| NC(=O)NO [hydroxyurea] |  |  | 500000 |
| CC(=O)O[C@H]1C(=O)[C@@]2(C)[C@H]([C@H](OC(=O)c3ccccc3)[C@]3(O)C[C@H](OC(=O)[C@H](O)[C@@H](NC(=O)c4ccccc4)c4ccccc4)C(C)=C1C3(C)C)[C@]1(OC(C)=O)CO[C@@H]1C[C@@H]2O [paclitaxel] |  |  | 4 |
| O=c1[nH]cc(F)c(=O)[nH]1 [5-fluorouracil] |  |  | 1000 |
| CS(=O)(=O)Nc1cccc2c1[nH]c1ccc(C(F)(F)F)cc12 [N-[6-(trifluoromethyl)-9H-carbazol-1-yl]methanesulfonamide] | not active | not active |  |
